Data on 1 compound can be found in PMC11345330, “Structural, Biochemical, and Phylogenetic Analysis of Bacterial and Fungal Carbohydrate Esterase Family 15 Glucuronoyl Esterases in the Rumen” (The Protein Journal, 2024).

The target of this experiment is T1, FsCE15 (Fibrobacter succinogenes, UniProt C9RKY6).
T1 construct: gene FSU_2898; codon-optimised synthetic gene, His6 tag (C-terminal for crystals)
As to the kind of experiment: continuous coupled uronic acid assay (Megazyme K-Uronic). The note with it: pH 7.0, 3-component buffer, 2 mM substrate. Type of experiment: biochemical.

T1 sequence (C9RKY6 entry or part of it): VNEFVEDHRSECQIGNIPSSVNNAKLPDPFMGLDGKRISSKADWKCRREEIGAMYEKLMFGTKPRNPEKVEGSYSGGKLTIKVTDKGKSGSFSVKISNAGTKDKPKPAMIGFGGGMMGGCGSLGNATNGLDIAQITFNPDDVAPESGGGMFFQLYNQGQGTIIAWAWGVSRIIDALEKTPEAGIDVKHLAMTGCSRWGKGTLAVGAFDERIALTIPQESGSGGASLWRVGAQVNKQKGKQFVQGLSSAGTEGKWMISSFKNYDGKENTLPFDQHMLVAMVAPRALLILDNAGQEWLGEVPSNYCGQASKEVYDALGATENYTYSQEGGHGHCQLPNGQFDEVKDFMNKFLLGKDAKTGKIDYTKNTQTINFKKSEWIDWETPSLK

Turning to `C=CCOC(=O)[C@H]1OC(O)[C@H](O)[C@@H](O)[C@@H]1O` (stereo partly drawn) [Allyl D-glucuronate], the “continuous coupled uronic acid assay (Megazyme K-Uronic)” value was “All of the enzymes cleaved AllylGlcA”.
